Test results as given in article PMC4467398, “Preclinical antitumor activity of ST7612AA1: a new oral thiol-based histone deacetylase (HDAC) inhibitor” (Oncotarget, 2014).

System: DOHH2 and TMD8 DLBCL cells
Test: Gene expression profiling (HumanHT-12 v4 BeadChip, limma), ST7612AA1 300 nM 8 hrs vs DMSO
Format: cell-based, human
Details: 300 nM 8 hrs vs DMSO

CC(=O)SCCCCC[C@H](NC(=O)[C@H]1CCC(=O)N1)C(=O)Nc1ccccc1 [ST7612AA1]
log ratio ATP6V0C (probe ILMN_1773849): 8.22E-01
log ratio ATP6V1G2 (probe ILMN_1654541): 8.47E-01
log ratio ATP6V1H (ILMN_2403730): 6.35E-01
log ratio ATP7B (probe ILMN_1722056): 8.88E-01
log ratio AVEN (ILMN_1710216): -1.49E+00
log ratio AVPI1 (probe ILMN_1671731): 8.94E-01
log ratio AZI1 (probe ILMN_1746206): 7.59E-01
log ratio BAG2 (ILMN_3244893): -9.02E-01
log ratio BCCIP (ILMN_1771966): -9.03E-01
log ratio BCLAF1 (ILMN_1775192): -8.85E-01
log ratio BCLAF1 (ILMN_2357272): -8.42E-01
log ratio BEND3 (ILMN_2375032): -9.71E-01
log ratio BHLHB2 (ILMN_1768534): -5.96E-01
log ratio BID (ILMN_1763386): -1.18E+00
log ratio BID (ILMN_2372413): -8.80E-01
log ratio BIK (probe ILMN_1770505): 7.57E-01
log ratio BLK (ILMN_1668277): -8.77E-01
log ratio BLVRB (probe ILMN_1797793): 8.74E-01
log ratio BMF (ILMN_1695354): 6.49E-01
log ratio BNIP3L (probe ILMN_1718961): 8.34E-01
log ratio BPHL (probe ILMN_1657746): 8.91E-01
log ratio BRIX1 (ILMN_1679800): -1.03E+00
log ratio BRIX1 (ILMN_2155172): -1.19E+00
log ratio BRPF3 (ILMN_1658800): -7.82E-01
log ratio C3orf34 (probe ILMN_1665217): 6.96E-01
log ratio C4orf32 (probe ILMN_1700257): 8.83E-01
log ratio C7orf47 (ILMN_1741475): 6.62E-01
log ratio C7orf55 (ILMN_3238680): -1.06E+00
log ratio C8orf13 (ILMN_1687213): 6.60E-01
log ratio C8orf33 (ILMN_2098325): -8.34E-01
log ratio C9orf45 (ILMN_1719998): 6.75E-01
log ratio C10orf32 (ILMN_2151056): -8.22E-01
log ratio C12orf24 (ILMN_2180371): -1.09E+00
log ratio C12orf52 (probe ILMN_1667857): 6.98E-01
log ratio C13orf15 (probe ILMN_1658494): 7.74E-01
log ratio C13orf25 (ILMN_1660754): -8.20E-01
log ratio C14orf4 (ILMN_1804396): 6.53E-01
log ratio C14orf173 (probe ILMN_2393450): 7.70E-01
log ratio C14orf179 (probe ILMN_1756877): 7.81E-01
log ratio C16orf57 (ILMN_1765880): 6.49E-01
log ratio C17orf58 (ILMN_1712985): 6.08E-01
log ratio C17orf58 (ILMN_2398926): 6.52E-01
log ratio C18orf45 (ILMN_1690442): 6.69E-01
log ratio C18orf55 (ILMN_1748916): -8.33E-01
log ratio C19orf2 (ILMN_2406892): -6.10E-01
log ratio C20orf108 (ILMN_1708016): 6.16E-01
log ratio C20orf177 (ILMN_1718712): -9.03E-01
log ratio CA2 (probe ILMN_2199439): 7.93E-01
log ratio CABLES1 (ILMN_1653001): -5.93E-01
log ratio CALM1 (ILMN_1778242): 6.20E-01
log ratio CAMLG (probe ILMN_1714599): 7.30E-01
log ratio CARHSP1 (ILMN_1809477): 5.98E-01
log ratio CASC1 (ILMN_1708983): 6.58E-01
log ratio CASC4 (probe ILMN_2325574): 6.85E-01
log ratio CBX7 (probe ILMN_1657361): 7.49E-01
log ratio CCDC6 (ILMN_1745904): 6.24E-01
log ratio CCDC16 (ILMN_2154603): -8.59E-01
log ratio CCDC24 (probe ILMN_1718771): 6.89E-01
log ratio CCDC43 (ILMN_1743783): -5.96E-01
log ratio CCDC58 (ILMN_1686920): -1.25E+00
log ratio CCDC59 (ILMN_1662318): -8.48E-01
log ratio CCDC86 (ILMN_1792681): -9.35E-01
log ratio CCDC92 (probe ILMN_1731107): 8.05E-01
log ratio CCDC128 (ILMN_1667356): 6.21E-01
log ratio CCNYL1 (ILMN_1810069): 6.58E-01
log ratio CCNYL1 (ILMN_2166524): 6.44E-01
log ratio CCR7 (ILMN_1715131): 6.79E-01
log ratio CD58 (ILMN_1785268): -9.16E-01
log ratio CD58 (ILMN_2147517): -9.82E-01
log ratio CD74 (ILMN_1736567): 6.75E-01
log ratio CD74 (probe ILMN_1761464): 8.47E-01
log ratio CD74 (probe ILMN_2379644): 7.27E-01
log ratio CDC2L6 (probe ILMN_1676891): 6.96E-01
log ratio CDC25A (ILMN_1711005): -8.24E-01
log ratio CDC42EP5 (probe ILMN_1774982): 8.75E-01
log ratio CDK2AP2 (probe ILMN_1690653): 8.01E-01
log ratio CDK4 (ILMN_1689001): -8.13E-01
log ratio CECR1 (probe ILMN_1751851): 8.43E-01
log ratio CEP70 (ILMN_1741350): 6.16E-01
log ratio CERK (ILMN_1767475): 6.70E-01
log ratio CHCHD4 (ILMN_1813938): -1.36E+00
log ratio CHD7 (ILMN_1677376): 6.71E-01
log ratio CHRAC1 (ILMN_1722390): -6.19E-01
log ratio CHSY1 (ILMN_1791576): 6.80E-01
log ratio CLCC1 (probe ILMN_1671933): 8.48E-01
log ratio CLECL1 (ILMN_1782729): -1.24E+00
log ratio CLIC4 (probe ILMN_2063586): 7.49E-01
log ratio CLIP2 (ILMN_2352190): 6.09E-01
log ratio CMIP (ILMN_1738075): 6.47E-01
log ratio CMTM8 (probe ILMN_1710124): 7.00E-01
log ratio CNFN (ILMN_1803838): 6.20E-01
log ratio CNIH2 (ILMN_1698733): 6.32E-01
log ratio COCH (ILMN_1711514): -6.14E-01
log ratio COIL (ILMN_1688034): -9.94E-01
log ratio COTL1 (probe ILMN_1788283): 6.87E-01
log ratio CPOX (ILMN_3240389): 6.04E-01
log ratio CRIP1 (probe ILMN_1656920): 8.56E-01
log ratio CRYM (probe ILMN_1779241): 8.32E-01
log ratio CSRP1 (probe ILMN_1811921): 7.01E-01
log ratio CSTB (probe ILMN_1761797): 8.06E-01
log ratio CTPS (ILMN_1783285): -1.21E+00
log ratio CTSB (probe ILMN_2359742): 8.56E-01
log ratio CUEDC1 (ILMN_1676665): 5.93E-01
log ratio CUL1 (ILMN_1749629): -1.05E+00
log ratio CXADR (probe ILMN_1796925): 8.18E-01
log ratio CXCL16 (ILMN_1728478): 6.11E-01
log ratio CXorf26 (ILMN_1768176): -1.34E+00
log ratio CXorf57 (probe ILMN_1703279): 8.25E-01
log ratio CYB5R1 (probe ILMN_1729237): 7.59E-01
log ratio CYB5R3 (probe ILMN_1740441): 7.06E-01
log ratio CYP2R1 (probe ILMN_2119774): 7.88E-01
log ratio DAD1 (ILMN_1731619): 6.40E-01
log ratio DCTD (ILMN_1802456): -1.08E+00
log ratio DCTN6 (ILMN_1744059): -8.19E-01
log ratio DCXR (ILMN_1681437): 6.03E-01
log ratio DDN (ILMN_1673450): -6.03E-01
log ratio DDX21 (ILMN_1735461): -9.88E-01
log ratio DEF8 (probe ILMN_1767509): 8.37E-01
log ratio DGCR6L (probe ILMN_3245688): 7.47E-01
log ratio DGKQ (ILMN_1793017): 6.08E-01
log ratio DHRS2 (ILMN_1725726): 6.46E-01
log ratio DIS3L (ILMN_1795822): -1.05E+00
log ratio DKC1 (ILMN_1671257): -1.02E+00
log ratio DNLZ (ILMN_2112049): -1.09E+00
log ratio DNMT3B (probe ILMN_1794692): 8.14E-01
log ratio DOK4 (ILMN_1774261): 6.37E-01
log ratio DPF1 (ILMN_1769961): 6.38E-01
log ratio DPH2 (ILMN_2375418): -1.21E+00
log ratio DSTN (probe ILMN_1706426): 7.52E-01
log ratio DTX1 (ILMN_1689002): -5.96E-01
log ratio DUS3L (ILMN_1723235): -1.36E+00
log ratio DYNC1H1 (probe ILMN_1780302): 6.97E-01
log ratio DYNLL2 (probe ILMN_1772796): 8.61E-01
log ratio DYRK1A (ILMN_2374293): -5.97E-01
log ratio DYRK3 (probe ILMN_2400322): 6.97E-01
log ratio DYRK3 (probe ILMN_2400326): 8.26E-01
log ratio EARS2 (ILMN_1758750): -5.91E-01
log ratio EBI2 (ILMN_1798706): -8.22E-01
log ratio EBI2 (ILMN_2168217): -9.10E-01
log ratio ECHS1 (probe ILMN_1718132): 7.78E-01
log ratio EEF1B2 (ILMN_1685678): -8.07E-01
log ratio EEF1E1 (ILMN_1725105): -8.38E-01
log ratio EGR1 (probe ILMN_1762899): 8.42E-01
log ratio ELOF1 (probe ILMN_1723185): 7.14E-01
log ratio EMG1 (ILMN_1797074): -1.12E+00
log ratio ENC1 (probe ILMN_1779147): 7.93E-01
log ratio ENO2 (probe ILMN_1765796): 7.11E-01
log ratio EPB41L5 (ILMN_1770245): 6.78E-01
log ratio EPN1 (ILMN_1772981): 6.50E-01
log ratio ERRFI1 (probe ILMN_1665510): 7.44E-01
